Literature values as cited in patent US20040115234A1, “Cosmetic composition” (priority 2002, published 2004).

Experiments:
[1] = tested on: eyelashes; details: Latanoprost at 0.005% by weight; clinical studies over up to 12 months; % of the subjects tested

CC(C)OC(=O)CCC/C=C\C[C@@H]1[C@@H](CC[C@@H](O)CCc2ccccc2)[C@H](O)C[C@@H]1O [Latanoprost, isopropyl-(Z)-7[(1R, 2R, 3R, 5S)3,5-dihydroxy-2-[(3R)-3-hydroxy-5-phenylpentyl]cyclopentyl]-5-heptenoate]
solubility in water: limited solubility in water
subjects with induced change in color of eyelashes [1]: 16.5%
subjects with induced change in density of eyelashes [1]: 22.2%
subjects with induced change in length of eyelashes [1]: 25.8%
subjects with induced change in thickness of eyelashes [1]: 17.5%
